Experiments:
duck salad = experiment: Test B flood test duck salad; format: in vivo, Heteranthera limosa; conditions: for Plant response rating, Ducksalad (0 to 10 scale, 0 is no effect, 10 is complete control): Rate 62 g/ha
Summary of the method: (§1)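 Each value is a visual injury score relative to controls, with 10 meaning complete control and 0 no effect. Evaluation took place twelve to sixteen days after the 2-leaf-stage plants were treated and kept in the greenhouse.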

bamyardgrass = experiment: Test B flood test barnyardgrass; format: in vivo, Echinochloa crus-galli; conditions: for Plant response rating, Barnyardgrass (0 to 10 scale, 0 is no effect, 10 is complete control): Rate 62 g/ha
Summary of the method: as §1

smallflower flatsedge = experiment: Test B flood test smallflower flatsedge; format: in vivo, Cyperus difformis; conditions: for Plant response rating, S. Flatsedge (0 to 10 scale, 0 is no effect, 10 is complete control): Rate 62 g/ha
Procedure: (§2) At the same time, these crop and weed species were also treated with postemergence applications of test chemicals formulated in the same manner. Plants ranged in height from 2 to 18 cm (1- to 4-leaf stage) for postemergence treatments. Plant species in the flood test consisted of rice (Oryza sativa), smallflower flatsedge (Cyperus difformis), duck salad (Heteranthera limosa) and bamyardgrass (Echinochloa crus-galli) grown to the 2-leaf stage for testing. Treated plants and controls were maintained in a greenhouse for twelve to sixteen days, after which all species were compared to controls and visually evaluated. Plant response ratings, summarized in Table B, are based on a scale of 0 to 10 where 0 is no effect and 10 is complete control. A dash (−) response means no test result.

rice = experiment: Test B flood test rice; format: in vivo, Oryza sativa; conditions: Pre-emergence
Procedure: as §2

crabgrass = experiment: Test B pre/postemergence crabgrass; format: in vivo, Digitaria sanguinalis; conditions: Preemergence
Summary of the method: (§3)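 Response is a visual 0-to-10 score relative to untreated plants, where 0 means no effect and 10 means complete control, taken twelve to sixteen days after application. Treatments went onto soil at planting and onto foliage of 1- to 4-leaf plants, using a surfactant-containing non-phytotoxic solvent.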

bedstraw = experiment: Test B pre/postemergence bedstraw; format: in vivo, Galium aparine; conditions: Preemergence
Summary of the method: as §3

corn = experiment: Test B pre/postemergence corn; format: in vivo, Zea mays; conditions: Preemergence
Summary of the method: as §3

wheat = experiment: Test B pre/postemergence wheat; format: in vivo, Triticum aestivum; conditions: Preemergence
Summary of the method: as §3

pigweed = experiment: Test B pre/postemergence pigweed; format: in vivo, Amaranthus retroflexus; conditions: Preemergence
Summary of the method: as §3

velvetleaf = experiment: Test B pre/postemergence velvetleaf; format: in vivo, Abutilon theophrasti; conditions: Preemergence
Summary of the method: as §3

sugar beet = experiment: Test B pre/postemergence sugar beet; format: in vivo, Beta vulgaris; conditions: Preemergence
Summary of the method: as §3

purple nutsedge = experiment: Test B pre/postemergence purple nutsedge; format: in vivo, Cyperus rotundus; conditions: Preemergence
Summary of the method: as §3

wild oat = experiment: Test B pre/postemergence wild oat; format: in vivo, Avena fatua; conditions: Preemergence
Summary of the method: as §3

cocklebur = experiment: Test B pre/postemergence cocklebur; format: in vivo, Xanthium strumarium; conditions: Preemergence
Summary of the method: as §3

rape = experiment: Test B pre/postemergence rape; format: in vivo, Brassica napus; conditions: Preemergence
Summary of the method: as §3

morningglory = experiment: Test B pre/postemergence morningglory; format: in vivo, Ipomoea hederacea; conditions: Preemergence
Summary of the method: as §3

soybean = experiment: Test B pre/postemergence soybean; format: in vivo, Glycine max; conditions: Preemergence
Summary of the method: as §3

blackgrass = experiment: Test B pre/postemergence blackgrass; format: in vivo, Alopecurus myosuroides; conditions: Preemergence
Summary of the method: as §3

surinam grass = experiment: Test B pre/postemergence surinam grass; format: in vivo, Brachiaria decumbens; conditions: Preemergence
Summary of the method: as §3

giant foxtail = experiment: Test B pre/postemergence giant foxtail; format: in vivo, Setaria faberii; conditions: Preemergence
Summary of the method: as §3

[1] = flood test species, Pre-emergence, visual evaluation after twelve to sixteen days
[2] = Rate 125 g/ha, Pre-emergence, flood test species, scale 0 to 10 where 0 is no effect and 10 is complete control
[3] = Rate 250 g/ha, Pre-emergence, flood-test species, scale 0 to 10, 0 is no effect, 10 is complete control
[4] = Rate 500 g/ha, Pre-emergence, flood test species, scale 0 to 10 (0 no effect, 10 complete control)
[5] = Rate 62 g/ha, scale of 0 to 10 where 0 is no effect and 10 is complete control
[6] = Rate 125 g/ha, scale of 0 to 10 where 0 is no effect and 10 is complete control
[7] = Rate 250 g/ha, scale 0 to 10 (0 no effect, 10 complete control)
[8] = Rate 500 g/ha, scale of 0 to 10 where 0 is no effect and 10 is complete control
[9] = Rate 125 g/ha, under heading Pre-emergence, flood test species, visual evaluation after twelve to sixteen days
[10] = Rate 250 g/ha, Pre-emergence (flood test species), scale 0 to 10, 0 is no effect, 10 is complete control
[11] = Rate 500 g/ha, Pre-emergence section of Table B, 0 to 10 scale (0 no effect, 10 complete control)

Cc1cc(C)n(Cn2c(=O)on(C(=O)N(c3ccccc3)C(C)C)c2=O)n1 [Compound 346]
0: Plant response rating, Ducksalad (0 to 10 scale, 0 is no effect, 10 is complete control) (duck salad; [1]) | Ducksalad plant response rating (duck salad; [2]) | Ducksalad plant response rating (duck salad; [3]) | Ducksalad plant response rating (duck salad; [4]) | Plant response rating, Barnyardgrass (0 to 10 scale, 0 is no effect, 10 is complete control) (bamyardgrass; [1]) | Barnyardgrass plant response rating (bamyardgrass; [2]) | Barnyardgrass plant response rating (bamyardgrass; [3]) | Barnyardgrass plant response rating (bamyardgrass; [4]) | Plant response rating, S. Flatsedge (0 to 10 scale, 0 is no effect, 10 is complete control) (smallflower flatsedge; [1]) | S. Flatsedge plant response rating (smallflower flatsedge; [2]) | S. Flatsedge plant response rating (smallflower flatsedge; [3]) | S. Flatsedge plant response rating (smallflower flatsedge; [4]) | Plant response rating, Rice (0 to 10 scale, 0 is no effect, 10 is complete control) (rice; Rate 62 g/ha, flood test species, visual evaluation after twelve to sixteen days) | Rice plant response rating (rice; Rate 125 g/ha, flood test species, scale 0 to 10 where 0 is no effect and 10 is complete control) | Rice plant response rating (rice; Rate 250 g/ha, flood-test species, scale 0 to 10, 0 is no effect, 10 is complete control) | Rice plant response rating (rice; Rate 500 g/ha, flood test species, scale 0 to 10 (0 no effect, 10 complete control))

CCCCCCn1c(=O)on(C(=O)N(c2ccc(F)cc2F)C(C)C)c1=O [Compound 637]
4: Plant response rating, Bedstraw (bedstraw; [8]) | Redroot pigweed plant response rating (pigweed; [5])
8: Plant response rating, B. signalgrass (surinam grass; [7]) | Plant response rating, B. signalgrass (surinam grass; [8])
2: Plant response rating, Bedstraw (bedstraw; [7]) | Plant response rating, Velvetleaf (velvetleaf; [8]) | Plant response rating, Rape (rape; [7]) | Blackgrass plant response rating (blackgrass; [5])
3: Plant response rating, Sugarbeets (sugar beet; [7]) | Plant response rating, Wild oats (wild oat; [8]) | Plant response rating, Rape (rape; [8]) | Blackgrass plant response rating (blackgrass; [6]) | B. signalgrass plant response rating (surinam grass; [6])
0: Bedstraw plant response rating (bedstraw; [5]) | Bedstraw plant response rating (bedstraw; [6]) | Corn plant response rating (corn; [5]) | Corn plant response rating (corn; [6]) | Plant response rating, Corn (corn; [7]) | Plant response rating, Corn (corn; [8]) | Wheat plant response rating (wheat; [5]) | Wheat plant response rating (wheat; [6]) | Plant response rating, Wheat (wheat; [7]) | Plant response rating, Wheat (wheat; [8]) | Velvetleaf plant response rating (velvetleaf; [5]) | Velvetleaf plant response rating (velvetleaf; [6]) | Plant response rating, Velvetleaf (velvetleaf; [7]) | Sugarbeets plant response rating (sugar beet; [5]) | Sugarbeets plant response rating (sugar beet; [6]) | Nutsedge plant response rating (purple nutsedge; [5]) | Nutsedge plant response rating (purple nutsedge; [6]) | Plant response rating, Nutsedge (purple nutsedge; [7]) | Plant response rating, Nutsedge (purple nutsedge; [8]) | Wild oats plant response rating (wild oat; [5]) | Wild oats plant response rating (wild oat; [6]) | Plant response rating, Wild oats (wild oat; [7]) | Cocklebur plant response rating (cocklebur; [5]) | Cocklebur plant response rating (cocklebur; [6]) | Plant response rating, Cocklebur (cocklebur; [7]) | Plant response rating, Cocklebur (cocklebur; [8]) | Plant response rating, Ducksalad (0 to 10 scale, 0 is no effect, 10 is complete control) (duck salad; [1]) | Ducksalad plant response rating (0 to 10 scale, 0 is no effect, 10 is complete control) (duck salad; [9]) | Ducksalad plant response rating (duck salad; [10]) | Ducksalad plant response rating (duck salad; [11]) | Plant response rating, Barnyardgrass (0 to 10 scale, 0 is no effect, 10 is complete control) (bamyardgrass; [1]) | Barnyardgrass plant response rating (0 to 10 scale, 0 is no effect, 10 is complete control) (bamyardgrass; [9]) | Barnyardgrass plant response rating (bamyardgrass; [10]) | Barnyardgrass plant response rating (bamyardgrass; [11]) | Rape plant response rating (rape; [5]) | Rape plant response rating (rape; [6]) | Morningglory plant response rating (morningglory; [5]) | Morningglory plant response rating (morningglory; [6]) | Plant response rating, Morningglory (morningglory; [7]) | Plant response rating, Morningglory (morningglory; [8]) | Plant response rating, S. Flatsedge (0 to 10 scale, 0 is no effect, 10 is complete control) (smallflower flatsedge; [1]) | S. Flatsedge plant response rating (0 to 10 scale, 0 is no effect, 10 is complete control) (smallflower flatsedge; [9]) | S. Flatsedge plant response rating (smallflower flatsedge; [10]) | S. Flatsedge plant response rating (smallflower flatsedge; [11]) | Soybean plant response rating (soybean; [5]) | Soybean plant response rating (soybean; [6]) | Plant response rating, Soybean (soybean; [7]) | Plant response rating, Soybean (soybean; [8]) | B. signalgrass plant response rating (surinam grass; [5])
7: Plant response rating, Redroot pigweed (pigweed; [7])
5: Plant response rating, Sugarbeets (sugar beet; [8])
10: Plant response rating, Crabgrass (crabgrass; [7]) | Plant response rating, Crabgrass (crabgrass; [8]) | Plant response rating, Redroot pigweed (pigweed; [8]) | Giant foxtail plant response rating (giant foxtail; [6]) | Plant response rating, Giant foxtail (giant foxtail; [7]) | Plant response rating, Giant foxtail (giant foxtail; [8])
9: Crabgrass plant response rating (crabgrass; [5]) | Crabgrass plant response rating (crabgrass; [6]) | Redroot pigweed plant response rating (pigweed; [6]) | Plant response rating, Blackgrass (blackgrass; [7]) | Plant response rating, Blackgrass (blackgrass; [8]) | Giant foxtail plant response rating (giant foxtail; [5])

Reference: US6737383B1, “Herbicidal oxadiazolidines” (priority 1999, dated 2004)
